Test results: publication PMC10791743, “Selective CK1α degraders exert antiproliferative activity against a broad range of human cancer cell lines” (Nature Communications, 2024)
Values joined by “and” are separate entries in the source; they are usually repeats but may differ in a detail not shown here. Equal entries are not always repeated. “Also recorded” adds a separate entry of the source.

How the values were obtained:
[1] = system: panel of AML and ALL cell lines; experiment: CTG viability in a panel of AML and ALL cell lines (Fig. 3a); assay type: cell-based, human; details: for IC50: replicate values
Procedure: The primary screen was performed in 384-well format using the CellTiter Glo (CTG) luminescent cell viability assay (Promega) as previously described. […] After overnight incubation at 37 °C in a humidified 5% CO2 incubator, cells were treated with compounds in dose–response format using a Pintool on a Biomek FX^P Laboratory Automation Workstation (Beckman Coulter). […] Luminescence signal was measured using an EnVision plate reader (PerkinElmer).
HD-MB03 cell line was obtained from Drs. Milde, Witt and Deubzer[52]. HD-MB03 and MB004 cells were grown in a neurobasal medium supplemented with glutamine, streptomycin, penicillin, B27, EGF, bFGF, and heparin as previously described. MB002 and MB004 cells were obtained from Dr Yoon-Jae Cho[54]. MB002 cells were cultured in 80% neurobasal medium supplemented with glutamine, streptomycin, penicillin, B27, and 20% conditioned media from previous passages; EGF, bFGF, and heparin were also added to the medium. MHH-CALL4, NALM-16, MHH-CALL-2 cells were obtained from the German Collection of Microorganisms and Cell Cultures GmbH (DSMZ, Germany). PER-117 cells were obtained from Telethon Kids Institute (Perth, Australia). The cells were cultured in RPMI1640 medium supplemented with 10% FBS (Hyclone), Penicillin/Streptomycin (100 units/mL), and Glutamine (100 µM) except for MHH-CALL-2 cells where 20% FBS were used. […] OCI-AML3 cells were purchased from DSMZ (ACC 690) and cultured in Alpha-MEM media (Invitrogen) supplemented with 20% FBS and 100 U/ml penicillin–streptomycin. […] Cell identity was confirmed by STR profiling using PowerPlex® Fusion System (Promega).

UCSD-AML1 cells = experiment: CTG viability, UCSD-AML1; assay type: cell-based, human; details: for IC50: UCSD-AML cells, replicate values
Procedure: After establishing the potency and selectivity of our lead CK1α degraders, we investigated their effect on a panel of AML and ALL cell lines (Fig. 3a).
The primary screen was performed in 384-well format using the CellTiter Glo (CTG) luminescent cell viability assay (Promega) as previously described. 3630 compounds from the St. Jude proprietary molecular glue library were screened against 9 human cancer cell lines (HD-MB03, MB004, MB002, MHH-CALL4, MOLM-13, TF-1, HEL, OCI-AML3, AML193). Each cell line was cultured in the complete medium recommended by the vendor and seeded in Corning 8804 BC white 384-well assay plates at densities of 1000, 1000, 1500, 7500, 1250, 156, 625, 1250, 1250 cells per well for HD-MB03, MB004, MB002, MHH-CALL4, MOLM-13, TF-1, HEL, OCI-AML, AML193, respectively. After overnight incubation at 37 °C in a humidified 5% CO2 incubator, cells were treated with compounds in dose–response format using a Pintool on a Biomek FX^P Laboratory Automation Workstation (Beckman Coulter). After 72 h of incubation, cell proliferation was assessed using a CellTiter-Glo (CTG) luminescent cell viability assay (Promega) according to the manufacturer’s instructions. Luminescence signal was measured using an EnVision plate reader (PerkinElmer).
HD-MB03 cell line was obtained from Drs. Milde, Witt and Deubzer[52]. HD-MB03 and MB004 cells were grown in a neurobasal medium supplemented with glutamine, streptomycin, penicillin, B27, EGF, bFGF, and heparin as previously described. MB002 and MB004 cells were obtained from Dr Yoon-Jae Cho[54]. MB002 cells were cultured in 80% neurobasal medium supplemented with glutamine, streptomycin, penicillin, B27, and 20% conditioned media from previous passages; EGF, bFGF, and heparin were also added to the medium. MHH-CALL4, NALM-16, MHH-CALL-2 cells were obtained from the German Collection of Microorganisms and Cell Cultures GmbH (DSMZ, Germany). PER-117 cells were obtained from Telethon Kids Institute (Perth, Australia). The cells were cultured in RPMI1640 medium supplemented with 10% FBS (Hyclone), Penicillin/Streptomycin (100 units/mL), and Glutamine (100 µM) except for MHH-CALL-2 cells where 20% FBS were used. MOLM-13 cells were obtained from DSMZ (ACC 554) and cultured in RPMI-1640 media (Gibco) supplemented with 20% FBS (R&D Systems) and 100 U/ml penicillin-streptomycin (Gibco). HNT-34 cells were purchased from DSMZ (ACC 600) and cultured in RPMI-1640 media supplemented with 20% FBS and 100 U/ml penicillin-streptomycin. Kasumi-3 cells were purchased from ATCC (CRL-2725) and cultured in RPMI-1640 media supplemented with 20% FBS and 100 U/ml penicillin-streptomycin. […]

[2] = Homo sapiens, MOLM-13, MOLM-13 cells

| SMILES | IC50 ([1]; HNT-34 cells) | IC50 ([1]; Homo sapiens, MHHCALL-2 cells) [nM] | IC50 [1, 2] [nM] | IC50 ([1]; KASUMI-3 cells) | IC50 ([1]; MHHCALL-4 cells) | IC50 ([1]; MOLM-13 cells) | IC50 ([1]; NALM16 cells) | IC50 (UCSD-AML1 cells; Homo sapiens) [nM] | IC50 (UCSD-AML1 cells) | IC50 values / cytotoxicity in panel of AML and ALL cell lines ([1]; CTG) | IC50 ([1]; Homo sapiens, HNT-34, HNT-34 cells) [nM] | IC50 ([1]; Homo sapiens, Kasumi-3, KASUMI-3 cells) [nM] | IC50 ([1]; Homo sapiens, MHHCALL4, MHHCALL-4 cells) [nM] | Activity against UCSD-AML1 cells (UCSD-AML1 cells; CTG) |
| --- | --- | --- | --- | --- | --- | --- | --- | --- | --- | --- | --- | --- | --- | --- |
| Cc1cccc(C(=O)Nc2ccc3c(c2)CN(C2CCC(=O)NC2=O)C3=O)c1 (stereo not drawn) [SJ0040] | 2 nM (2×) and 4.9 nM | 27 | 125 | 16 nM and 11 nM and 30.2 nM | 67 nM and 73 nM and 17 nM | 136 nM and 96.2 nM | 130 nM and 16 nM and 25 nM | 3 | 2.1 nM |  |  |  |  |  |
| O=C1CCC(N2Cc3cc(Nc4noc5ccccc45)ccc3C2=O)C(=O)N1 (stereo not drawn) [SJ3149] | 1.5 nM | 2 | 8 | 72 nM and 71.7 nM | 4 nM | 11 nM and 7.1 nM |  |  | 1 nM and 0.4 nM and 1.1 nM | single digit nanomolar range; also recorded: low nanomolar to sub-nanomolar range | 1 | 118 | 3 | sub-nanomolar activity |
